Data on four compounds can be found in patent publication US20230276792A1, “SELECTIVE HERBICIDES BASED ON SUBSTITUTED ISOXAZOLIN CARBOXAMIDES AND CLOQUINTOCET-MEXYL” (Bayer Aktiengesellschaft, priority 2020, published 2023).

Format in all cases: in vivo
In test [1] the test system is spring wheat, TRZAS Triso. The experiment in a line: Safener seed treatment, pre-emergence herbicide application, crop damage. As to conditions: cloquintocet-mexyl 0.25 g a.i./kg seed. The method, then:
(§1) For the safener seed treatment, sufficient seeds of the respective crops (spring wheat, TRZAS; spring barley, HORVS; maize, ZEAMA) were weighed into screw top glass bottles approximately twice the volume of the seeds.
(§2) The specified safeners, formulated as wettable powder (WP) were weighed out so that the specified rates (g a.i./kg seed) would be obtained, dissolved in water (1 ml water per 10 g of seeds), and added to the seeds to produce a slurry.
(§3) The bottles were capped and then placed in an overhead shaker (set at medium speed for ca. 60 minutes) so that the seeds were evenly coated with the slurry. The bottles were uncapped and the seeds were either placed on paper and dried for an interval of 3-4 hours prior to sowing, or directly sown. Seeds were placed in sandy loam soil in pots of a diameter of 7-8 cm, and covered with soil.
Pre-emergence application of the specified herbicides was done subsequently, on two sets of plants: • a) seed treatment with safener, as described above • b) no safener treatment
The herbicides were formulated as WP and was sprayed onto the soil surface as an aqueous suspension at an equivalent water application rate of 300 l/ha.
After application, the test plants were kept in the greenhouse under good growth conditions. At intervals up to 4 weeks after application (=28 days after treatment; DAT), % crop damage observed on the treated plants was scored visually in comparison to control plants that had not received any safener or herbicide treatment.
Values in the table below are mean values of at least 2 replicates.
(§4) Reduction [Difference]=herbicide damage without safener−herbicide damage with safener
(§5) Reduction [%]=(Reduction [Difference]*100)/herbicide damage without safener
a) Plant Species, Variety: TRZAS Triso, Safener (SAF): Cloquintocet-Mexyl

Test [2] has as its system spring barley, HORVS Montoya. Described as above. As to conditions: 21 (Final) DAT; HER dose 15 g a.i./ha; cloquintocet-mexyl 0.25 g a.i./kg seed. As for the experimental part:
as §1, §2, §3
Pre-emergence application of the specified herbicides was done subsequently, on two sets of plants: • a) seed treatment with safener, as described above • b) no safener treatment […]
After application, the test plants were kept in the greenhouse under good growth conditions. At intervals up to 4 weeks after application (=28 days after treatment; DAT), % crop damage observed on the treated plants was scored visually in comparison to control plants that had not received any safener or herbicide treatment. […]

Test [3] relates to spring wheat, TRZAS Triso. The experiment in a line: Safener seed treatment, post-emergence herbicide application, crop damage. As to conditions: for HER effect + SAF [%]: cloquintocet-mexyl 0, 5 g a.i./kg seed; for HER effect [%]: without safener.
Source text: (§6) For safener seed treatment trials, sufficient seed amounts of the respective crops (spring wheat (TRZAS); spring barley (HORVS)) were weighed into screw cap glass bottles with a minimum volume trice of the seeds.
(§7) As a first step, specified safeners formulated as wettable powder (WP) or wettable granules (WG) were weighed out for the required dosages (g a.i./kg seed), corresponding to the seed amounts. The safener amounts were mixed with a coloured slurry blind formulation type, pre-diluted with milk at 3.5% fat rate (25 mgs slurry formulation plus 2 ml milk per 10 grams of seed). A tube roller was used for coating. The solutions were gradually pipetted each on the rotating seeds followed by coating for min. 3 hours until all liquid had been soaked up by the seeds. Thereafter, the coated seeds were put flat on open trays for drying over night at room temperature.
(§8) Treated seeds were then placed into pots (7 cm diameter) on the surface of sandy loam, pressed down, flat covered with additional soil and finally covered with sandy soil, also pressed down, watered, and kept under good growth conditions in a greenhouse, until the plants had reached 2-leaf-stage (BBCH 12).
(§9) At that stage, post-emergence application of the specified herbicides was done on: • a) pot sets containing plants with safener-coated seeds as described above, • b) as a reference, pot sets of plants without seed treatment.
(§10) The herbicides were formulated as wettable powder (WP). Equivalent to the spray area, compound amounts were weighed out and diluted related to the water application rate (300 l/ha) to an aqueous suspension plus additive (1 l/ha MERO). Dosage related equivalents were conventionally sprayed on trays with the potted plants.
(§11) After application, the test plants were kept under good growth conditions in a greenhouse. Assessment timings were 10 and 21 days after treatment (DAT) with the herbicide, by visual scoring of the crop damage in % (comparison of untreated with treated plants, either sprayed only with herbicide or with herbicide on plants with treated seeds).
as §4, §5
(§12) b) Plant Species, Variety: TRZAS Triso, Safener (SAF): Cloquintocet-Mexyl

For test [4], the system named is spring barley, HORVS Montoya. The experiment in a line: Tank-mix post-emergence crop damage, herbicide with and without safener cloquintocet-mexyl, greenhouse. Also on record: key to Reduction [Difference]: damage without safener − damage with safener, % points (0–100% scale). As to conditions: cloquintocet-mexyl 100 g a.i./ha; for Reduction [%] / Reduction [Difference]: 21 DAT, HER dose 32 g a.i./ha. As for the experimental part:
(§13) Seeds of crops (spring wheat, TRZAS; spring barley, HORVS; maize, ZEAMA) were placed in sandy loam soil in peat pots, covered with soil and cultivated in a greenhouse under good growth conditions. Two to three weeks after sowing, the test plants were treated at the 1 to 3-leaf stage. The herbicide/safener active compound combinations according to the invention, formulated as wettable powders or emulsion concentrates, and, in parallel tests, the correspondingly formulated individual active compounds were sprayed onto the green parts of the plants in various dosages using an amount of water of 300 l/ha (converted).
(§14) The pots were returned under good growing conditions in a glasshouse and a visual assessment of herbicidal effects was made at intervals from 1 to 3 weeks after herbicide application (DAT=days after treatment). Assessment was on a percentage basis in comparison with untreated control plants (0%=no injury, 100%=complete kill).
as §4, §5
(§15) a) Plant Species, Variety: HORVS Montoya, Safener (SAF): Cloquintocet-Mexyl

In test [5] the test system is spring wheat, TRZAS Triso. Described as above. Also on record: key to Reduction [Difference]: percentage points of damage: damage without safener minus damage with safener. Conditions: 10 DAT. As for the experimental part: as §13, §14, §4, §5, §12
The subject of test [6] is spring barley, HORVS Montoya. Nature of the test: Safener seed treatment, post-emergence herbicide application, crop damage. As to conditions: cloquintocet-mexyl 0, 5 g a.i./kg seed. Also on record: key to Reduction [Difference]: % crop damage without safener minus % damage with safener.
Source text: as §6, §7, §8, §9, §10, §11, §4, §5, §15

Setting [7] is: 11 (Interim) DAT, HER dose 15 g a.i./ha.
Setting [8] is: 21 (Final) DAT, HER dose 15 g a.i./ha.
The mark [9] stands for this setting: HER dose 32 g a.i./ha, cloquintocet-mexyl 100 g a.i./ha.
[10] abbreviates: HER dose 8 g a.i./ha, cloquintocet-mexyl 50 g a.i./ha.

Regarding `C=CC1(C(=O)NC2COC(C(=O)OC)C2)CC(c2cc(F)cc(F)c2)=NO1` (mixture of isomers) [Example 1.68], the “Reduction [Difference]” value in test [1] (11 (Interim) DAT, HER dose 5 g a.i./ha) is 45; in test [1] (setting [7]), 70; in test [1] (21 (Final) DAT, HER dose 5 g a.i./ha) it was 45; in test [1] (setting [8]), 80; in test [2] it was 80. Further, the figures for the “Reduction [%]” value in test [1] (setting [7]) and in test [1] (setting [8]) were 88% and 94%, respectively. In addition, the “HER effect + SAF [%]” value in test [3] (21 DAT, HER dose 1 g a.i./ha) was determined as 20%; in test [3] (21 DAT, HER dose 4 g a.i./ha), 30%. Moreover, the “HER effect [%]” value was 80% in test [3] (21 DAT, HER dose 1 g a.i./ha) and 85% in test [3] (21 DAT, HER dose 4 g a.i./ha).

As for `C=CC1(C(=O)NC2COC(C(=O)OC)C2)CC(c2cc(C)cc(F)c2)=NO1` (mixture of isomers) [Example 1.71], in test [4], the “Reduction [%]” value was 57% and the “Reduction [Difference]” value is on record as 40. Also, in test [3] (10 DAT, HER dose 8 g a.i./ha), the “HER effect + SAF [%]” value came out at 0% and the “HER effect [%]” value was found to be 50%. In test [3] (10 DAT, HER dose 32 g a.i./ha), the “HER effect + SAF [%]” value was found to be 0% and the “HER effect [%]” value is given as 85%. In test [5] (setting [9]), the “HER effect + SAF” value turned out to be 10%, the “Reduction [%]” value is given as 88% and the “Reduction [Difference]” value stood at 75.

Turning to `COCCOC(=O)C1C=CC(NC(=O)C2(C(F)(F)F)CC(c3cc(F)cc(C#N)c3)=NO2)C1` (stereo not shown) [Example 1.2], the “HER effect + SAF” value in test [4] (10 DAT, HER dose 8 g a.i./ha) is recorded as 10%; in test [6] (10 DAT, HER dose 8 g a.i./ha), 10%; in test [5] (setting [10]), 70%. Moreover, the “HER effect + SAF [%]” value amounted to 0% in test [3] (10 DAT, HER dose 8 g a.i./ha) and 10% in test [3] (10 DAT, HER dose 32 g a.i./ha). Further, the “HER effect [%]” value in test [3] (10 DAT, HER dose 8 g a.i./ha) turned out to be 90%; in test [3] (10 DAT, HER dose 32 g a.i./ha), 90%. For the same compound, in test [5] (setting [10]), the “Reduction [%]” value is 22%.

For the compound `COC(=O)C1C=CC(NC(=O)C2(C)CC(c3cccc(F)c3)=NO2)C1` (stereo not shown) [Example 1.20], the “Reduction [%]” value was 88% in test [4]; 88% in test [6] (21 DAT, HER dose 32 g a.i./ha); 80% in test [5] (setting [9]). Further, the “Reduction [Difference]” value in test [4] is 70; in test [6] (21 DAT, HER dose 32 g a.i./ha), 70. For the same compound, the “HER effect + SAF [%]” value in test [3] (10 DAT, HER dose 8 g a.i./ha) was 0%; in test [3] (10 DAT, HER dose 32 g a.i./ha), 0%. Moreover, the “HER effect [%]” value in test [3] (10 DAT, HER dose 8 g a.i./ha) is recorded as 20%; in test [3] (10 DAT, HER dose 32 g a.i./ha), 50%.
